# Measurements reported in PubChem BioAssay (NCI).
#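 These data come from cells grown in 96-well plates and exposed to compound for 48 hours at five concentrations. TGI: total growth inhibition.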
# Legend:
# Assay in all cases: growth of human tumour cells (NCI), 48 h
# [1] = system: HOP-62 NSCLC
# [2] = system: MALME-3M melanoma
# [3] = system: COLO 205 colon
# [4] = system: 786-0 renal
# [5] = system: SNB-19 CNS
# [6] = system: NCI-H226 lung
# [7] = system: UACC-62 melanoma
# [8] = system: SF-539 CNS
# [9] = system: CCRF-CEM leukemia
# [10] = system: MDA-MB-435
SMILES,TGI [1] [µM],TGI [2] [µM],TGI [3] [µM],TGI [4] [µM],TGI [5] [µM],TGI [6] [µM],TGI [7] [µM],TGI [8] [µM],TGI [9] [µM],TGI [10] [µM]
O=C(Nc1ccccc1-c1nn(C(=S)Nc2ccccc2)c(=S)n(C(=S)Nc2ccccc2)c1=O)C(F)(F)F,> 100,> 79.1,44.4,> 100,> 100,76,44.4,> 100,62.1,–
Oc1[nH]c2ccccc2c1N=Nc1nc(-c2ccc(Br)cc2)cs1,28.6,–,79.1,35.8,40.7,–,63.2,34.3,61.8,> 100
CCCCN(CCCC)C(=O)C(=O)C(C(=O)c1ccc(OC)cc1)c1ccc(OC)cc1 (configuration not stated),> 100,> 100,> 100,> 100,> 100,> 100,> 100,> 100,> 100,–
COC(=O)CC(c1ccccc1)C1(c2ccccc2)SCCS1 (configuration not stated),> 290,> 290,> 290,> 290,> 290,> 290,> 290,> 290,> 290,–
O=C1CN(c2cccc(Cl)c2)C(=O)CN1CCN1CC(=O)N(c2cccc(Cl)c2)CC1=O,> 100,> 100,> 100,> 100,> 100,–,> 100,> 100,> 100,> 100
O=C1C=CC(=O)c2nc3c(cc21)CCC3,> 100,31.4,27.7,33.4,> 100,–,33,–,25.6,–
c1ccc(NCn2cnc3ccccc32)cc1,–,> 100,> 100,> 100,> 100,> 100,> 100,> 100,> 100,–
CCOC(=O)C1=C(C(=O)OCC)C2c3ccccc3C=CN2C(C(=O)OCC)=C(SC)S1 (configuration not stated),> 100,> 100,> 100,> 100,> 100,> 100,> 100,> 100,> 100,–
CN(C)CCn1c2c3ccccc3ccc2c2oc(=O)c3ccccc3c21,28.3,26.3,> 100,7.14,29.4,–,71,7.1,> 100,–
COc1ccc(OC)c(N2CC(N)C2=O)c1 (configuration not stated),> 100,> 100,> 100,> 100,> 100,> 100,> 100,> 100,> 100,–
Cc1cc2c(C)[nH]nc2c(C(=O)O)c1C,> 100,–,> 100,> 100,> 100,–,> 100,> 100,> 100,–
O=S(=O)(N/N=C/c1cccc(/C=N/NS(=O)(=O)c2ccccc2)c1)c1ccccc1,> 100,> 100,> 100,> 100,–,> 100,> 100,> 100,> 100,–
O=c1c(-c2ccccc2)c2oc(c1-c1ccccc1)CSCc1cccc(c1)CSC2,62.4,> 100,> 100,89.8,> 100,> 100,> 100,60.4,> 100,–
CC(=O)O/N=C(/C)c1ccccc1O,> 100,> 100,> 100,> 100,> 100,> 100,> 100,> 100,> 100,–
CC(=O)NNc1nc(C)c(C(=O)/C=C/c2ccc(NC(C)=O)cc2)s1,> 100,> 100,> 100,> 100,> 100,–,> 100,> 100,> 100,–
C/C(CCn1[nH]c(=O)ccc1=O)=N\NC(=O)C(=O)NN,> 100,> 100,> 100,> 100,> 100,> 100,> 100,> 100,> 100,–
CC(=O)OCCOCNC(=S)N/N=C(\C)c1cnccn1,> 100,> 100,> 100,> 100,> 100,79.7,36.5,> 100,> 100,–
Cc1ccc(/C=C/C(=O)c2cccc3ccccc23)cc1,37.7,28.6,56.4,28.2,29.6,34.3,33.7,–,67,–
